Data: patent publication US6207677A, “Piperidine derivatives having anxiolytic effect” (H. Lundbeck A/S, priority 1991, dated 2001)

target: sigma receptors; assay: Inhibition of 3H-DTG binding to sigma receptors in rat brain in vitro; conditions: 2 nM 3H-DTG, rat brain without cerebellum, 25° C., 20 min
Method: INHIBITION OF 3H-DTG BINDING TO SIGMA RECEPTORS IN RAT BRAIN IN VITRO
By this method the inhibition by drugs of the binding of 2 nM ^3 H-DTG (1,3,di-o-tolyl guanidine) to sigma receptors in homogenates or membranes from rat brain without cerebellum is determined in vitro as modified from Weber et al. Proc. Natl. Acad. Sci. 1986, 83,8784.
Homogenate: Rats (150-250 g) are decapitated and the brains (without cerebellum) quickly removed and placed on ice, weighed and homogenized in 100 vol ice-cold (0° C.) 50 mM Tris-buffer (pH 7.7) in an ethanol rinsed glass/teflon homogenizer at 0° C. and kept on ice until use.
P2-membranes: Brains are homogenized in 10 vol 0.32 M sucrose in an ethanol rinsed glass/teflon homogenizer with 10 strokes up and down. The homogenate is centrifuged for 10 min at 900×gm at 4° C. The supernatant is decanted and centrifuged for 20 min at 50,000 gm at 4° C. The resulting pellet is resuspended in 10 vol ice-cold […] Tris-buffer (pH 7.7) and incubated for 30 min. at 37° C. The membrane suspension is then centrifuged for further 20 min. at 50,000 gm at 4° C. The pellet is resuspended in 50 vol. of ice-cold Tris-buffer and used immediately.
0.5 ml 50 mM Tris-buffer (pH 7.7), 0.25 ml displacer (6×100 μM DTG, 6× [test compound], or Tris-buffer), and 0.25 ml 6×2 nM. ^3 H-DTG are mixed into 5 ml s plastic test tubes and kept at 4° C. until use. The binding reaction is initiated by mixing 0.5 ml tissue suspension into this solution and incubate at 25° C. for 20 min. Glass fiber filters (Whatman GF/B) are placed on the filter machine which is then closed tightly. Just before filtration vacuum is applied, and the filters washed with 0.1% PEI solution from a spray bottle followed by one wash with Tris-buffer.
The binding reaction is stopped by filtration of the assay mixture at reduced pressure (750 mbar) followed by further 3 washes with 5 ml ice-cold Tris-buffer. The filters are then placed in counting vials and 4 ml scintillation solution added. The vials are counted in a Beckmann scintillation counter.
50 mM Tris-buffer pH 7.7: 7.38 g Trizma--7.7 plus distilled H2 O ad 1 liter. 100 ml 10% polyethylenimine (PEI): 100 ml dest. H2 O is added to approx. 20 g 50% PEI which is solubilized by stirring and heating. Diluted (1+99) before use. 6×2 nM ^3 H-DTG: The exact volume depends on the actual concentration of the batch, but is made as close as possible to 12 nM. The containers for the radioactive solution is rinsed in 96% ethanol before use.
^3 H-DTG was obtained from NEN Research Products, Du Pont Denmark. Specific activity 62.3 Ci/mmol.
The known sigma receptor ligands BMY 14802 and rimcazole were included in the test for comparison purposes.

SMILES	IC50 [nM]
c1ccc(OCCCN2CCC3(CC2)Cc2ccccc2CO3)cc1 [Compound 2l, 1'-(3-Phenoxy-1-propyl)spiro[3H-2-benzopyran-3,4'-piperidine]]	3.8
c1ccc(CCCCN2C3CCC2CC2(C3)OCc3ccccc32)cc1 (centres unmarked) [Compound 2t, 8'-(4-Phenyl-1-butyl)spiro[isobenzofuran-1(3H),3'-8-azabicyclo[3,2,1]octane]]	5.4
Fc1ccc2occ(COCCN3CCC4(CC3)OCc3ccccc34)c2c1 [Compound 35b, 1'-[2-(5-Fluorobenzofuran-3-ylmethyloxy)-1-ethyl]spiro[isobenzofuran-1(3H),4'-piperidine]]	2.8
CN(C)CCn1cc(CCCCN2CCC3(CC2)OCc2ccccc23)c2ccccc21 [Compound 36, 1'-[4-(1-(2-Dimethylamino-1-ethyl)-3-indolyl)-1-butyl]spiro[isobenzofuran-1(3H) ,4'-piperidine]]	4.5
c1ccc2c(c1)COCC21CCN(CCCCCCc2c[nH]c3ccccc23)CC1 [Compound 2y, 1'-[6-(3-Indolyl)-1-hexyl]-spiro[1H-2-benzopyran-4(3H),4'-piperidine]]	0.84
c1ccc(CCCCN2CCC3(CC2)Oc2ccccc2O3)cc1 [Compound 25a, 1'-(4-Phenyl-1-butyl)-spiro[1,3-benzodioxole-2,4'-piperidine]]	11
OC(CCCN1CCC2(CC1)OCc1ccccc12)c1ccccc1 (centres unmarked) [Compound 26b, 1'-(4-Phenyl-4-hydroxy-1-butyl)-spiro[isobenzofuran-1(3H),4'-piperidine]]	1.9
C1=CC2(CCN(CCCCc3ccccc3)CC2)Oc2ccccc21 [Compound 2i, 1'-(4-Phenyl-1-butyl)spiro[2H-1-benzopyran-2,4'-piperidine]]	4.3
Clc1cccc(Cl)c1C1CCN(CCCCc2noc3ccccc23)CC1 [Compound 19d, 3-[4-(4-(2,6-Dichlorophenyl)-1-piperidyl)-1-butyl]-1,2-benzisoxazol]	4.4
Fc1ccc(C2CCN(CCOc3cn(-c4ccc(F)cc4)c4ccc(Cl)cc34)CC2)cc1 [Compound 14b]	3.8
Fc1ccc(-n2cc(CCCCN3CCC4(CC3)OCc3c(F)cccc34)c3ccccc32)cc1 [Compound 9s, 4-Fluoro-1'-[4-[1-(4-fluorophenyl)-3-indolyl]-1-butyl]spiro[isobenzofuran-1(3H),4'-piperidine]]	56
c1ccc2c(c1)NCC2CCCCN1CCC2(CC1)Oc1ccccc1O2 (centres unmarked) [Compound 13a, 1'-[4-(2,3-Dihydro-3-indolyl)-1-butyl]spiro[1,3-benzodioxole-2,4'-piperidine]]	3.7
c1ccc(CCCCN2CCC3(CCc4ccccc4O3)CC2)cc1 [Compound 2h, 3,4-Dihydro-1'-(4-phenyl-1-butyl)spiro[2H-1-benzopyran-2,4'-piperidine]]	1.4
c1ccc2c(c1)COC1(CCN(CCCCc3csc4ccccc34)CC1)C2 [Compound 10b, 1,4-Dihydro-1'-(4-(benzo[b]thiophen-3-yl)-1-butyl)spiro[3H-2-benzopyran-3,4'-piperidine]]	1.3
c1ccc(CCCCN2CCC3(CC2)COCc2ccccc23)cc1 [Compound 2f]	0.95
c1ccc2c(c1)COC21CCN(CCCCc2cn(-c3ccoc3)c3ccccc23)CC1 [Compound 5e, 1'-[4-[1-(3-Furanyl)-3-indolyl]-1-butyl]spiro[isobenzofuran-1(3H),4'-piperidine]]	4.7
Fc1ccc2occ(CCCN3CCC4(CC3)OCc3ccccc34)c2c1 [Compound 15, 1'-[3-(5-Fluorobenzofuran-3-yl)-1-propyl)spiro[isobenzofuran-1(3H) ,4'-piperidine]]	0.42
c1ccc(CCCCCN2CCC3(CC2)OCc2ccccc23)cc1 [Compound 4e, 1'-(5-Phenyl-1-pentyl)-spiro[isobenzofuran-1 (3h),4'-piperidine]]	0.2
CSCCCN1CCC2(CC1)OCc1ccccc12 [Compound 2n, 1'-(3-Methylthio-1-propyl)spiro[isobenzofuran-1(3H),4'-piperidine]]	6

SMILES	IC50 [nM]
c1ccc2c(c1)COC21CCN(CCCCc2cn(-c3ccsc3)c3ccccc23)CC1 [Compound 5c, 1'-(4-(1-(3-Thienyl)-3-indolyl]-1-butyl]spiro[isobenzofuran-1(3H),4'-piperidine]]	0.25
Cn1cc(CCCCN2CCC3(CC2)OCc2ccccc23)c2ccccc21 [Compound 2bb, 1'-[4-(1-Methyl-3-indolyl)-1-butyl]-spiro[isobenzofuran-1(3H),4'-piperidine]]	0.3
Cc1ccc(C2CCN(CCCCc3cn(-c4ccc(F)cc4)c4ccccc34)CC2)cc1 [Compound 9m, 1-(4-Fluorophenyl)-3-[4-(4-(4-methylphenyl)-1-piperidyl)-1-butyl]indole]	1.6
Fc1ccc(C2CCN(CCCCc3cn(-c4ccc(F)cc4)c4ccccc34)CC2)cc1 [Compound 9l, 1-(4-Fluorophenyl)-3-[4-(4-(4-fluorophenyl)-1-piperidyl)-1-butyl]indole]	0.14
Cc1ccc(C2CCN(CCCOc3cn(-c4ccc(F)cc4)c4ccc(Cl)cc34)CC2)cc1 [Compound 8d, 5-Chloro-1-(4-fluorophenyl)-3-[3-(4-(4-methylphenyl)-1-piperidinyl)-1-propyloxy]indol]	11
O=C1N(CCCN2CCC3(CC2)OCc2ccccc23)CCN1c1ccccc1 [Compound 3c]	1
Clc1ccc(C2CCN(CCCCc3c[nH]c4ccccc34)CC2)cc1Cl [Compound 2dd, 3-[4-(4-(3,4-Dichlorophenyl)-1-piperidyl)-1-butyl]indole]	1.7
c1ccc2c(c1)COC21CCN(CCCCC2CCCCC2)CC1 [Compound 2b, 1'-(4-Cyclohexyl-1-butyl)spiro[isobenzofuran-1(3H), 4'-piperidine)]	0.07
Fc1ccc2c(c1)c(CCCCN1CCC3(CC1)OCc1ccccc13)cn2-c1ccsc1 [Compound 9j, 1'-[4-[5-Fluoro-1-(3-thienyl)-3-indolyl]-1-butyl]-spiro[isobenzofuran-1(3H),4'-piperidine]]	0.11
c1ccc(CCN2CCC3(CC2)OCc2ccccc23)cc1 [Compound 4c, 1'-(2-Phenyl-1-ethyl)-spiro[isobenzofuran-1(3h),4'-piperidine]]	2.9
Cc1ccc(S(=O)(=O)n2cc(CCCCN3CCC4(CC3)OCc3ccccc34)c3ccccc32)cc1 [Compound 6b, 1'-(4-(1-p-Toluenesulfonyl-3-indolyl)-1-butyl)spiro[isobenzofuran-1(3H),4'-piperidine]]	0.17
Fc1ccc(-n2cc(CCCCN3CCC(c4ccccc4)CC3)c3ccccc32)cc1 [Compound 5f, 1-(4-Fluorophenyl)-3-[4-(4-phenyl-1-piperidyl)-1-butyl]indole]	0.04
Fc1ccc2occ(CCCCN3CCC4(CC3)OCc3ccccc34)c2c1 [Compound 16, 1'-[4-(5-Fluorobenzofuran-3-yl)-1-butyl]-spiro[isobenzofuran-1(3H) ,4'-piperidine]]	0.15
O=C1Nc2ccccc2C1CCCCN1CCC(c2ccc(F)cc2)CC1 (centres unmarked) [Compound 2ii, 3-[4-(4-(4-Fluorophenyl)-1-piperidyl)-1-butyl]indol-2-one]	5.8
Fc1ccc(-n2cc(CCCCN3CCC4(CC3)OCc3cccc(F)c34)c3ccccc32)cc1 [Compound 9g, 7-Fluoro-1'-[4-[1-(4-fluorophenyl)-3-indolyl]-1-butyl]spiro[isobenzofuran-1(3H), 4'-piperidine]]	4.2
COc1ccccc1C1CCN(CCCCC2CNc3ccccc32)CC1 (centres unmarked) [Compound 13d, 2,3-Dihydro-3-[4-(4-(2-methoxyphenyl)-1-piperidinyl)-1-butyl]indol]	2.1
c1ccc(CCCCN2CCC3(CC2)SCc2ccccc23)cc1 [Compound 2d, 1'-(4-Phenyl-1-butyl)spiro[benzo[c]thiophene-1(3H),4'-piperidine]]	0.77
Clc1cc2[nH]cc(CCCCN3CCC4(CC3)OCc3ccccc34)c2cc1Cl [Compound 2z, 1'-[4-(5,6-Dichloro-3-indolyl)-1-butyl]-spiro[isobenzofuranr-1(3H) ,4'-piperidine]]	1.5
CC(C)CCCCN1CCC2(CC1)OCc1ccccc12 [Compound 4b, 1'-(5-Methyl-1-hexyl)-spiro[isobenzofuran-1(3H),4'-piperidine)]	0.53
